Results taken from patent US10624948B2, “Use of cell-permeable peptide inhibitors of the JNK signal transduction pathway for the treatment of various diseases” (Xigen Inflammation Ltd., priority 2013, dated 2020).
Where two headings read alike, the source gives them in different places.

Key:
[1] = system: Sprague-Dawley albino rats, light-induced photoreceptor cell death; type: in vivo
Protocol: The aim of this study was to investigate the dose effect of XG-102 on light-induced photoreceptor cell death.
Test item (XG-102: 30 mg/ml, 3 mg/ml, and 0.3 mg/ml) and vehicle (0.9% NaCl) were administered by intravitreal injection in right eyes the day before induction. The reference (Phenyl-N-test-Butylnitrone (PBN) (50 mg/kg)) and vehicle were intraperitoneally injected 30 min before induction then, 3 times during 12 hours of light exposition, then once after induction. Animals were placed in constant light (7000 lux) for 24 h. Electroretinograms (ERG) were recorded before light treatment and on days 9, 16 and 23 after induction. Eyes were then taken for histology and outer nuclear layer (ONL) thickness assessment. The table below summarizes the allocation of animals in treatment groups:
For the intravitreal injection animals were anesthetized by intramuscular injection of a mixture of xylazine/ketamine. Test item (5 μl) and vehicle (5 μl) were injected in the right eye. The injection was performed under an operating microscope in the supratemporal area at pars plana using a 33G-needle mounted on a 50 μl Hamilton. The filled syringe was mounted into the UltraMicroPump III to achieve accurate injection in microliter range. Reference and vehicle were injected intraperitoneally at a dose volume of 2.5 ml/kg using a 30G-needle mounted on a 1 ml-syringe.
Light Exposure: The rats that had been dark-adapted overnight were exposed for 24 hours to a continuous white fluorescent light (7000 lx) in clear plastic cages. Each cage contained one rat. After exposure, the rats returned to rearing cyclic light conditions.
ERG was recorded before induction and 7, 14 and 21 days after cessation of exposure (Days 9, 16 and 23) on right eyes of dark-adapted and anesthezied animals. The latency times (for a- and b-wave) and the a-wave and b-wave amplitudes were measured for each ERG; the latency times were expressed as millisecond and the a-wave and b-wave as a percentage of the baseline value obtained before light exposure. 15 min before measurement 10 μl Mydriaticum® (0.5% tropicamide) were instilled for pupillary dilatation.
Measurement of the ONL Thickness: After ERG testing, animal was euthanized by an overdose of pentobarbital and the right eyes were enucleated, fixed and embedded in paraffin. Sections (5 μm thick) were performed along the vertical meridian and stained with Trichrome-Masson. The vertical meridian included the optic nerve.

[2] = system: HCT 116 human colon tumor; assay: Orthotopic HCT 116 human colon tumors in SCID mice; type: in vivo
Protocol: The objective of this study was to determine the effect of XG-102 on the growth of HCT 116 human colon tumor orthotopically xenografted in SCID mice.
For XG-102 administration the required amount of XG-102 was dissolved in the vehicle. The formulation was prepared according to the procedure detailed below. Concentrations were calculated and expressed taking into account test item purity and peptide content (multiplier coefficient was 74.6%). […] Diluted solutions were maintained on ice until use. Unused material was discarded. XG-102 was injected once daily at 0.1 and 1 mg/kg/inj. for a total of fourteen consecutive administrations (Q1D×14). The routes of substance administrations were: injected subcutaneously (SC) at 5 ml/kg/inj., administered per os (PO) to mice by oral gavage via a canula at 5 ml/kg/adm. The injection and administration volumes were adapted, according to the daily individual body weight of mice.
Twenty four to Forty-eight hours before tumor induction, 5 SCID mice were irradiated with a γ-source (1.8 Gy, Co^60, INRA, Dijon, France). Ten millions (10^7) HCT 116 cells suspended in 200 μl of RPMI medium were subcutaneously injected in the right flank of the 5 female SCJD mice. When tumors reached 1000-2000 mm^3, mice were sacrificed. […]
Mice were sacrificed at D26. […] Invasion of liver by tumor nodules was evaluated macroscopically. […]

CC(C)C[C@@H](NC(=O)[C@@H](Cc1ccccc1)NC(=O)[C@H]1CCCN1C(=O)[C@@H](CCC(N)=O)NC(=O)[C@H](NC(=O)[C@H]1CCCN1C(=O)[C@@H](CCCNC(=N)N)NC(=O)[C@@H](CO)NC(=O)[C@@H](CCC(N)=O)NC(=O)[C@H](N)CC(=O)O)C(C)C)C(=O)N[C@H](CC(N)=O)C(=O)N[C@H](CC(C)C)C(=O)N[C@@H](C(=O)N[C@@H](C(=O)N1CCC[C@@H]1C(=O)N[C@H](CCCNC(=N)N)C(=O)N[C@H](CCCCN)C(=O)N1CCC[C@@H]1C(=O)N[C@H](CCCNC(=N)N)C(=O)N1CCC[C@@H]1C(=O)N1CCC[C@@H]1C(=O)N[C@H](CCCNC(=N)N)C(=O)N[C@H](CCCNC(=N)N)C(=O)N[C@H](CCCNC(=N)N)C(=O)N[C@H](CCC(N)=O)C(=O)N[C@H](CCCNC(=N)N)C(=O)N[C@H](CCCNC(=N)N)C(=O)N[C@H](CCCCN)C(=O)N[C@H](CCCCN)C(=O)N[C@H](CCCNC(=N)N)C(=O)NCC(=O)O)[C@H](C)O)[C@H](C)O [XG-102]
ERG A-wave amplitude, percent of the baseline, Mean ± SD ([1]; XG-102 ivt 15 μg/eye, Day 23): 41.8 ± 23.6% | ERG B-wave amplitude, percent of the baseline, Mean ± SD ([1]; XG-102 ivt 15 μg/eye, Day 23): 56.5 ± 29.8% | ERG A-wave amplitude, percent of the baseline, Mean ± SD ([1]; XG-102 ivt 150 μg/eye, Day 9): 23.6 ± 25.3% | ERG B-wave amplitude, percent of the baseline, Mean ± SD ([1]; XG-102 ivt 150 μg/eye, Day 9): 31.9 ± 42.6% | ERG A-wave amplitude, percent of the baseline, Mean ± SD ([1]; XG-102 ivt 150 μg/eye, Day 16): 24.1 ± 28.1% | ERG B-wave amplitude, percent of the baseline, Mean ± SD ([1]; XG-102 ivt 150 μg/eye, Day 16): 38.9 ± 51.5% | ERG A-wave amplitude, percent of the baseline, Mean ± SD ([1]; XG-102 ivt 150 μg/eye, Day 23): 23.7 ± 27.2% | ERG B-wave amplitude, percent of the baseline, Mean ± SD ([1]; XG-102 ivt 150 μg/eye, Day 23): 37.1 ± 54.4% | MBWC at D−2 ([2]; PO 0.1 mg/kg/adm.): 7.1±4.6% | lethality after surgery vs vehicle treated group ([2]; mouse, in vivo): did not significantly modify lethality compared to vehicle treated group
